Test results: US20180326022A1, “COMPOSITIONS AND METHODS FOR IMPROVING HEART FUNCTION AND TREATING HEART FAILURE” (The Trustees of the University of Pennsylvania, priority 2017, published 2018)

What was measured:
human myocytes = test: Cell contractility of human myocytes (0.5 Hz); assay type: cell-based
Description: Viable myocytes were concentrated by gravity (5-7 min) and supernatant was aspirated to remove dead cells. Myocytes were resuspended in NT solution containing 1 mM Ca^2+ and concentrated by gravity (5-7 min) again. Cardiomyocytes used acutely were maintained in NT solution for up to 6 hours. Myocytes were treated with 10 μM parthenolide (Fisher Scientific NC9013142 or Sigma P0667) or 10 μM colchicine (Sigma) at room temperature in NT solution for 2 hours. Experiments were performed within 6 hours of isolation, except for those involving viral transduction in cultured cells.
MatTek glass bottom dish was coated 5 μl of 0.5 mg/ml laminin and air dried for 10 min. Culture medium was F-10 (1×) Nutrient Mixture (Ham) [+] L-Glutamine (Life Technologies, 11550-043) supplemented with insulin-transferrin selenium-X (Gibco, 51500-056), 20 mM HEPES, 1 μg/μl primocin (Invivogen, ant-pm-1), 0.4 mM extra CaCl2, 5% FBS, 25 μM cytochalasin D (Cayman, 11330). Viable myocytes were concentrated and a proper amount of medium was added in culture so that neighboring cells were not in direct contact. Viral constructs were permitted to express for 48 hours with Moi=100-200. Adenoviral TTL-IRES-dsRed and EMTB-3x GFP were transduced in human myocytes as previously performed in rat myocytes. Myocytes were replenished with fresh warm medium without cytochalasin D before calcium and contractility measurements.
Experiments were performed as described in Example 1 with some modification. Contractility is measured in custom-fabricated cell chambers (Ionoptix) mounted on an LSM Zeiss 880 inverted confocal microscope using a 40× oil 1.4 NA objective and transmitted light camera (IonOptix MyoCam-S). Myoyctes were maintained in NT solution (for freshly isolated myocytes) or culture medium (without cytochalasin D, for cultured myocytes) at room temperature and electrical field stimulation was provided at 0.5 Hz with a myopacer (IonOptix MYP100) through platinum electrodes lowered into the bath. Sarcomere length was measured optically by Fourier transform analysis (IonWizard, IonOptix). After 10-30 s of 0.5 Hz pacing to achieve steady state, five traces were recorded and analyzed. If not specified, contractility data was obtained at room temperature.
To test whether the contractile improvement over MT destabilization remains under more physiological conditions, both 0.5 Hz and 1 Hz contractions at 37 C were recorded and analyzed in a small subset of isolated human myocytes (1 NF and 1 failing heart, FIG. 29C).

desmin = test: Microtubule co-sedimentation with desmin; assay type: cell-based; details: after PTL treatment; rat cardiomyocytes and C2C12 cells
Description: Microtubules were isolated for co-sedimentation from isolated cardiomyocytes or C2C12 cells following treatment with parthenolide. Cells were homogenized at 37° C. in 400 μl of microtubule-stabilizing buffer (MSB) by passage through 25G syringe needle. Homogenate was centrifuged to remove cell debris at 2000×g for 5 min at 37° C. and pellet was resuspended in RIPA buffer containing 5 mM CaCl2. Supematant containing free and polymerized tubulin was loaded on a cushion of 10% sucrose in MSB and centrifuged in SW-60 rotor at 100000×g for 30 min at 37° C. Supernatant was saved, pellet (polymerized MT fraction) was resuspended in 0° C. RIPA buffer containing 5 mM CaCl2 and incubated on ice for 10 min. All samples were then centrifuged at 14000×g for 5 min at 0° C. and supernatant was measured by Bradford assay against a BSA (Sigma) standard and boiled in 12-40 μl of 1× loading buffer (Li-COR, 928-40004) prior to western blotting.

C=C1C(=O)O[C@H]2[C@H]1CC/C(C)=C/CC[C@@]1(C)O[C@@H]21 [PTL, 4,5-epoxygermacra-1(10),11(13)-dien-12,6-olactone]
late phase of relaxation (human myocytes; NF human myocytes, 10 μM PTL): slightly prolonging
restoration of lost function (contractile velocities vs NF benchmark) (human myocytes; failing human myocytes): ~50%
shortening amplitude and velocity, speed of relaxation (human myocytes; failing human myocytes, 10 μM, 2 hours): robustly improved
amount of desmin associated with the MTs (desmin): directly proportional to the amount of MT detyrosination
